# Measurements taken from article PMC12123458, “Unraveling Small Molecule-Mediated Sirtuin 3 Activation at a Distinct Binding Site for Cardioprotective Therapies” (ACS Central Science, 2025).
# Experiments:
# SIRT5 = target: T1, SIRT5 (Homo sapiens, UniProt Q9NXA8); assay: SPR binding to SIRT5
# T1 sequence (Q9NXA8 37-310): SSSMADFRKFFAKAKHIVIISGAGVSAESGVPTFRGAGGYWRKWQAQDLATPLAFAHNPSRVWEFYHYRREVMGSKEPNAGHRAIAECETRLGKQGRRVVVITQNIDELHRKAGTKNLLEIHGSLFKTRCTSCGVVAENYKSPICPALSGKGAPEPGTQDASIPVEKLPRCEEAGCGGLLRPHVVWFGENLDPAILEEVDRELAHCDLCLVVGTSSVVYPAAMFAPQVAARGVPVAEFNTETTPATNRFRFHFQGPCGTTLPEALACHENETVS
# Protocol: (§1) The affinity of SKLB-11A for SIRT1, SIRT2, SIRT3, SIRT5, and SIRT6 was determined using a Reichert 4SPR system (Reichert Technologies, Depew, NY, USA). Proteins at 200 μg/mL were immobilized on a dextran-coated sensor chip (13206066) until reaching ≥12,000 response units (RUs). A dual-flow channel setup was used, reserving one channel for blank controls. SKLB-11A was introduced at varying concentrations for binding and subsequent dissociation kinetic analysis. Data acquisition was at 25 °C utilizing a PBST running buffer (pH 7.4). The equilibrium dissociation constant (K d) was computed from steady-state affinity measurements using TraceDrawer software.
# [1] = tested on: LC3, p62, PINK1, Parkin in H9c2 cells; assay: Autophagy/mitophagy markers in H9c2 cells (Western blot, immunofluorescence); type: cell-based; conditions: 24 h
# Protocol: (§2) Proteomic analysis was conducted on H9c2 cells and murine cardiac tissues. Protein lysates were resolved via SDS-PAGE and transferred onto PVDF membranes. […] After washing, membranes were probed with secondary antibodies for 1 h at room temperature. Detection was facilitated by an ECL kit, with densitometry performed using ImageJ software to quantify protein expression, normalized against controls. The antibodies employed included: anti-SIRT3 (2627, Cell Signaling Technology), anti-acetylated lysine (9441, CST), anti-Ac.K68-MnSOD2 (ab137037, Abcam), anti-Ac.K122-MnSOD2 (ab214675, Abcam), anti-MnSOD2 (13141, CST), anti-LC3B (3868, CST), anti-p62 (8025, CST), anti-PINK1 (6946, CST), anti-Parkin (4211, CST), and anti-β-actin (ab8226, Abcam).
# SIRT1 = target: T2, SIRT1 (Homo sapiens, UniProt Q96EB6); assay: SPR binding to SIRT1
# T2 sequence (Q96EB6 1-747): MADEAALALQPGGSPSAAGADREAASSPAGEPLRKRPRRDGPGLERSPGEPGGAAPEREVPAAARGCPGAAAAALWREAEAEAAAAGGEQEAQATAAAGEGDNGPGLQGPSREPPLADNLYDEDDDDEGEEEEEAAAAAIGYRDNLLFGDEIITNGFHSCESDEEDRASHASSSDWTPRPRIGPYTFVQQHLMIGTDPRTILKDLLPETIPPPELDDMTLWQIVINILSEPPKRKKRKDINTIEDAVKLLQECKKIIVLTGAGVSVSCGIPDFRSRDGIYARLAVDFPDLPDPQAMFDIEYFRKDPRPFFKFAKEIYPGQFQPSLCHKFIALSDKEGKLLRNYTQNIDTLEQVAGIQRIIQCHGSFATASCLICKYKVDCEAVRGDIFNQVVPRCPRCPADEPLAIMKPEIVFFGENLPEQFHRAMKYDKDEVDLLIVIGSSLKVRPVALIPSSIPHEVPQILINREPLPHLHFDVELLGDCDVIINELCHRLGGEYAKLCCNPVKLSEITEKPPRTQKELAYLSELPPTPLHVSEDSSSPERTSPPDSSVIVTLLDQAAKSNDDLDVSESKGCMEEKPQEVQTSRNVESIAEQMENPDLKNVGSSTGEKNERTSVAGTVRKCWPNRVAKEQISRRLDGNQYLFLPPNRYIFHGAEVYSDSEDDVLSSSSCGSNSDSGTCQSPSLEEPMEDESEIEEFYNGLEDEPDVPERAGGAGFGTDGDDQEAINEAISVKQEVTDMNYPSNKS
# Protocol: as §1
# SIRT3 = target: T3, SIRT3 (Homo sapiens, UniProt Q9NTG7); assay: Coupled enzymatic assay, acetylated MnSOD-K122 substrate; type: biochemical; conditions: 100 μM
# T3 construct: purchased Enzo Life Sciences BML-AK557-0001
# T3 sequence (Q9NTG7 1-399): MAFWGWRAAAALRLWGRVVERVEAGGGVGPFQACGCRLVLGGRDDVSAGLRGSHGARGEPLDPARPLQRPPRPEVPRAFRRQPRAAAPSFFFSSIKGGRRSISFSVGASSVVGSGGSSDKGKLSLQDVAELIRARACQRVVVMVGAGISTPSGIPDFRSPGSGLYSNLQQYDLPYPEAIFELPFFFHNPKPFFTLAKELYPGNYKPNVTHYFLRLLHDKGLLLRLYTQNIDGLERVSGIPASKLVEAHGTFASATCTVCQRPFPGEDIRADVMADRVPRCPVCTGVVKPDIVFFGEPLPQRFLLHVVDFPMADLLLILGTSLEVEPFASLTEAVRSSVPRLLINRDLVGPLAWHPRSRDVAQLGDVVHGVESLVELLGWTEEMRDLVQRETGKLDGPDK
# Source text: Additionally, we used surface plasmon resonance (SPR) to measure the binding of SKLB-11A to immobilized SIRT3. […] We next evaluated the selectivity of SKLB-11A for different SIRT family members. […] We next examined the functional specificity of SKLB-11A using coupled enzymatic assays with isoform-specific, physiologically relevant substrates: acetylated p53-K381 for SIRT1, acetylated α-tubulin-K25 for SIRT2, acetylated MnSOD-K122 for SIRT3, and succinylated CPS1-K537 for SIRT5 (Supplementary Table S3). […] Using Schrödinger molecular docking simulations, we assessed the binding interactions of SKLB-11A with SIRT isoforms.
# H9c2 cells = assay: ATP content in Dox-treated H9c2 cells; type: cell-based; conditions: 10 μM
# Protocol: ATP concentrations were detected by a firefly luciferin/luciferase-based ATP bioluminescence assay kit (Beyotime, China). The ATP contents were determined as nmol/mg protein by using SYNERGY 4 Microplate Reader (BioTek Instruments).
# [2] = tested on: acetylated MnSOD (K68 and K122) in H9c2 cells; assay: Western blot of MnSOD, SIRT3 and acetylated MnSOD in H9c2 cells; type: cell-based; conditions: 24 h
# Protocol: as §2
smiles,measurement,setting,value
"COC(=O)c1c(N)n(Cc2ccc(F)cc2)c2nc3ccccc3nc12 [SKLB-11A, Methyl 2-amino-1-(4-fluorobenzyl)-1H-pyrrolo[2,3-b]quinoxaline-3-carboxylate]",binding to SIRT5,SIRT5,no binding
same,LC3-II and p62 (autophagic flux),[1],increased LC3-II expression and reduced p62 levels
same,expression of PINK1 and Parkin,[1],increased the expression of PINK1 and Parkin
same,Kd,SIRT1; SPR,> 200 µM
same,affinity for SIRT1 lower than its affinity for SIRT3,SIRT1; SPR Kd ratio,approximately 40 times
same,effect on SIRT3 deacetylation activity,SIRT3,pronounced activation
same,ATP levels,H9c2 cells,capable of increasing ATP levels
same,SIRT3 protein levels,[2],did not alter SIRT3 protein levels
same,deacetylation of MnSOD at K122 and K68,[2],induced deacetylation at K122 and K68
